# Assay results: ChEMBL document CHEMBL2429742, “Design, synthesis, and biological evaluation of novel 3-pyrrolo[b]cyclohexylene-2-dihydroindolinone derivatives as potent receptor tyrosine kinase inhibitors” (Bioorg Med Chem Lett, 2013)
# Legend:
# BXPC-3 [1] = test: Ratio of sunitinib IC50 to compound IC50 for human BxPC3 cells; assay type: functional
# HepG2 = test: Antiproliferative activity against human HepG2 cells after 72 hrs by MTT assay; assay type: functional, cell-based; conditions: HepG2, 72 h
# T-24 = test: Antiproliferative activity against human T24 cells after 72 hrs by MTT assay; assay type: functional, cell-based; conditions: T-24, 72 h
# [2] = target: Platelet-derived growth factor receptor beta (Homo sapiens, UniProt P09619)
# [3] = target: Vascular endothelial growth factor receptor 2 (Homo sapiens, UniProt P35968)
# HT-29 = test: cells; conditions: Homo sapiens, HT-29, 72 h
# cells = conditions: Homo sapiens, BGC, 72 h
# BXPC-3 [4] = test: cells; conditions: Homo sapiens, BXPC-3, 72 h
# [5] = target: Mast/stem cell growth factor receptor Kit (Homo sapiens, UniProt P10721)
# [6] = Oral bioavailability in cynomolgus monkey; assay type: ADME, organism-based, Macaca fascicularis; conditions: in vivo
# [7] = target: Vascular endothelial growth factor receptor 3 (Homo sapiens, UniProt P35916); test: Inhibition of VEGFR3 (unknown origin)
# [8] = target: Vascular endothelial growth factor receptor 1 (Homo sapiens, UniProt P17948); test: Inhibition of VEGFR1 (unknown origin)
# Sequence of Vascular endothelial growth factor receptor 1 (P17948 whole entry): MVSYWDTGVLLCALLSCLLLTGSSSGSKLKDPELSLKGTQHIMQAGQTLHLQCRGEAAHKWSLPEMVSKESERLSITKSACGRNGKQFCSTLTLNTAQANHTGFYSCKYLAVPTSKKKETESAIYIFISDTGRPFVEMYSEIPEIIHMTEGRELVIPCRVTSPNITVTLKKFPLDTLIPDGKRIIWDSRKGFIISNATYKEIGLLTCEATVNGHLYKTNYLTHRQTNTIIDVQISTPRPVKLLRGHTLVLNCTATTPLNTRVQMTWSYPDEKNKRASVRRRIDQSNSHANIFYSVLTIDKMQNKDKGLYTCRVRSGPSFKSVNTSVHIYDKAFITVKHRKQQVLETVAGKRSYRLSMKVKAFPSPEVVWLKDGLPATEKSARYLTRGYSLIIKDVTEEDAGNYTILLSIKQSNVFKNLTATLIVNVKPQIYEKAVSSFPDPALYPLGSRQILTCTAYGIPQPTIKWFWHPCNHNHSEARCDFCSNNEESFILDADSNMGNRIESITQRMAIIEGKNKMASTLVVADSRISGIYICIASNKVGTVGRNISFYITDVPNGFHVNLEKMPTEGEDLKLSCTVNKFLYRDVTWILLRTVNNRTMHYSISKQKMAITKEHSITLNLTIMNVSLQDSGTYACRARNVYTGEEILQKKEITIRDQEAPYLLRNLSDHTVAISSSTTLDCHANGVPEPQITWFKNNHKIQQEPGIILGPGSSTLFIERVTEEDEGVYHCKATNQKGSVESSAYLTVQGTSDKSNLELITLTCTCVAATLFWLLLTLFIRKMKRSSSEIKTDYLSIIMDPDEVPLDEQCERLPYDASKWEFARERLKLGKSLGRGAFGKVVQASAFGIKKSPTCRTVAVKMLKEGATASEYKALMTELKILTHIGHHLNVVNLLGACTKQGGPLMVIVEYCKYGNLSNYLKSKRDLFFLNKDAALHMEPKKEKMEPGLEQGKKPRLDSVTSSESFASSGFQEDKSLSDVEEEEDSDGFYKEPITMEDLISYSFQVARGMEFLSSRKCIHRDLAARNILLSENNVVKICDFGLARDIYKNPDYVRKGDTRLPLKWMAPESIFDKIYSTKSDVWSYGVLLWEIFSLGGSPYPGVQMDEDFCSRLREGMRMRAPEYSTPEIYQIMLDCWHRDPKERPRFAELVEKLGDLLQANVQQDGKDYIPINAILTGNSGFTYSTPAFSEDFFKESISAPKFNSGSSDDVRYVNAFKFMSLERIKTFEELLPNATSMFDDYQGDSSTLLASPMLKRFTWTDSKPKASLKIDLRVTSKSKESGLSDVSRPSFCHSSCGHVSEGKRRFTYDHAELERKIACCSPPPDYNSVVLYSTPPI
# Sequence of Vascular endothelial growth factor receptor 2 (P35968 whole entry): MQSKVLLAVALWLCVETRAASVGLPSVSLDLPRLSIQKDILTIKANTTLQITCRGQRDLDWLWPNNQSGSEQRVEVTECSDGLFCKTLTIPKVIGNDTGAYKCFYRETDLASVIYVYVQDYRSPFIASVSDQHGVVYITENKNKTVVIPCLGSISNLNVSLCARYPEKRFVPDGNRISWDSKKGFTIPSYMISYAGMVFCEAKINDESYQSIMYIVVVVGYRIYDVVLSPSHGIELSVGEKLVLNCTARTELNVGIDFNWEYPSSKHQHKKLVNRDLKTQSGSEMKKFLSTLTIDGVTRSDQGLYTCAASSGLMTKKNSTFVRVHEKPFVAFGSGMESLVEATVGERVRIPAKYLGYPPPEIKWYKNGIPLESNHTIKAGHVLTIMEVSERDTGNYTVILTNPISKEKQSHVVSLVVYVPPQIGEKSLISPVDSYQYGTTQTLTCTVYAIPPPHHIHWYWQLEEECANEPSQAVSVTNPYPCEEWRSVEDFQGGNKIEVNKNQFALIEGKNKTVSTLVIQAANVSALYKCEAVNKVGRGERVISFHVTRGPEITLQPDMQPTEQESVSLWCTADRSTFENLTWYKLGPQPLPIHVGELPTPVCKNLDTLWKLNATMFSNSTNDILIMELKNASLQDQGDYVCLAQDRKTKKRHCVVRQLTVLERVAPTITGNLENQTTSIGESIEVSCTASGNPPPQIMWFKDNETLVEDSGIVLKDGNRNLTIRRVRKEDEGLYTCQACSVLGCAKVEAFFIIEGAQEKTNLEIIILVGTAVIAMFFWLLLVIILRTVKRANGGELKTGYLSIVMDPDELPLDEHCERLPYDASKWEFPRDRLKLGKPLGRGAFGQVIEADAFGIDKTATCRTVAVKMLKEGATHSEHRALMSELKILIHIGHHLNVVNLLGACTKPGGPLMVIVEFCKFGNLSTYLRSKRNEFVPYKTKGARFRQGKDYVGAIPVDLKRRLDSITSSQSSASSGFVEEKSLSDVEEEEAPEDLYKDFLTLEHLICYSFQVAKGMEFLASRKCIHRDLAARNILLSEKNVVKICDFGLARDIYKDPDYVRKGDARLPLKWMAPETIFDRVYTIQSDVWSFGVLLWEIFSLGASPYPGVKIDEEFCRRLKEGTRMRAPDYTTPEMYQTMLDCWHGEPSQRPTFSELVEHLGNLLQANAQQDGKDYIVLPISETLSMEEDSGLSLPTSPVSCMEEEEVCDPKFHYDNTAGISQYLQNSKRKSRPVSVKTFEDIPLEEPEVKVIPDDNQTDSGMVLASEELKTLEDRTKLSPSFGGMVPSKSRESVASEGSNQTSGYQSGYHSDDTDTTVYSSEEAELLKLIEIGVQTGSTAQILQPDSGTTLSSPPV
# Sequence of Platelet-derived growth factor receptor beta (P09619 whole entry): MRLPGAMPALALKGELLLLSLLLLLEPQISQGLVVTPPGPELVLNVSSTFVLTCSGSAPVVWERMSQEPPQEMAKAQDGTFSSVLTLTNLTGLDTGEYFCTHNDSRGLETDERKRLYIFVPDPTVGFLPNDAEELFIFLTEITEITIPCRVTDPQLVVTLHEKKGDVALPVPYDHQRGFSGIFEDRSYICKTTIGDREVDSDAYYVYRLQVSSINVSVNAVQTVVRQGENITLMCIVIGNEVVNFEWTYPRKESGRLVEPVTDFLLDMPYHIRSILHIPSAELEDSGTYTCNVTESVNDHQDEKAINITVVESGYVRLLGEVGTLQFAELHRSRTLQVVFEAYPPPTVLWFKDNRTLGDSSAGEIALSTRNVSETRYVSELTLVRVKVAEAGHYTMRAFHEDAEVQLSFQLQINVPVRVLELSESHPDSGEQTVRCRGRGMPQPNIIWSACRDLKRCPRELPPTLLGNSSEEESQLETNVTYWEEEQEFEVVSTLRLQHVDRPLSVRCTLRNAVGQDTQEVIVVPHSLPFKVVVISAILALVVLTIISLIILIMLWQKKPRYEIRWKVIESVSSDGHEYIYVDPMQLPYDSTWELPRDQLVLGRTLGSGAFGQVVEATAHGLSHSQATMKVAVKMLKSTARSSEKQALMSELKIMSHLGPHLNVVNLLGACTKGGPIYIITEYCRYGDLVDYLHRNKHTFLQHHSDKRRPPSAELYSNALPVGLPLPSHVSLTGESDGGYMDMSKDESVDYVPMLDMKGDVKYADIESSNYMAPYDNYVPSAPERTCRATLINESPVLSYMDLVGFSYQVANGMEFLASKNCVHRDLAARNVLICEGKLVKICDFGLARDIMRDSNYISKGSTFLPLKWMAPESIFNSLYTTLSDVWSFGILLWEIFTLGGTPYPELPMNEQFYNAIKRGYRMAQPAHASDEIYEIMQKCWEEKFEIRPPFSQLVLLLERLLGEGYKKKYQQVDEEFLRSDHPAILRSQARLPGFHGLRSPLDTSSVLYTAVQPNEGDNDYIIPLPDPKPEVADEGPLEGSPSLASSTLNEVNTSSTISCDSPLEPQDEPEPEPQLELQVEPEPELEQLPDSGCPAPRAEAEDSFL
# Sequence of Mast/stem cell growth factor receptor Kit (P10721 whole entry): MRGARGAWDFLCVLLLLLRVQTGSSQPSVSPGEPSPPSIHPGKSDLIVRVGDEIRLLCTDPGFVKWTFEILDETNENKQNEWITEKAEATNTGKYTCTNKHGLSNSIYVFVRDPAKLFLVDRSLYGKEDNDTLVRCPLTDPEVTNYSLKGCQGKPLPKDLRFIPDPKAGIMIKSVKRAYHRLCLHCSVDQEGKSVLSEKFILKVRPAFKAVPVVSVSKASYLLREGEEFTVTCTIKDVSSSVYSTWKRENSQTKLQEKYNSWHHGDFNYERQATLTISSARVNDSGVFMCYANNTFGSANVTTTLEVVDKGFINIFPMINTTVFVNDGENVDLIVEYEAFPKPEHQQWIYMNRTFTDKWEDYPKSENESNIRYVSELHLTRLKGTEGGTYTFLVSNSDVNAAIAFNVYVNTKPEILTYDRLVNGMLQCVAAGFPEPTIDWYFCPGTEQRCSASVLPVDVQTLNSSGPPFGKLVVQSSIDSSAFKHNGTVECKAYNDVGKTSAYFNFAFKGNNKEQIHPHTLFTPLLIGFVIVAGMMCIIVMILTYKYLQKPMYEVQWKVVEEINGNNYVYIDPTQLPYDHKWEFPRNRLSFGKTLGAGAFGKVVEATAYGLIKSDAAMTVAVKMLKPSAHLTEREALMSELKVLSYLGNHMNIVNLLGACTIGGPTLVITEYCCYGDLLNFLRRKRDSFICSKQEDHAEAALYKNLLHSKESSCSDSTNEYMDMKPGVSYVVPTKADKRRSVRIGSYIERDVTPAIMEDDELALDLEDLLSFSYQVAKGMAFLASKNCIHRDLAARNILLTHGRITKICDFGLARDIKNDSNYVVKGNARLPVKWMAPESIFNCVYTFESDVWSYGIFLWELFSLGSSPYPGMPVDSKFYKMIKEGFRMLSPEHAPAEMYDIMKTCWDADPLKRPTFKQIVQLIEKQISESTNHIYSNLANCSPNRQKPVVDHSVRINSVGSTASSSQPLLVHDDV
SMILES,IC50 [2] [nM],IC50 [3] [nM],IC50 [5] [nM],further results
CCN(CC)CCNC(=O)c1c(C)[nH]c2c1CCC/C2=C1/C(=O)Nc2ccccc21,89.9,9.4,,Ratio IC50 (BXPC-3 [1]): 7; IC50 (HepG2): 7730 nM; IC50 (T-24): 3560 nM; IC50 (HT-29): 540 nM; IC50 (cells): 6730 nM; IC50 (BXPC-3 [4]): 520 nM
Cc1[nH]c2c(c1C(=O)N1CCC[C@H]1CN1CCCC1)CCC/C2=C1/C(=O)Nc2ccc(F)cc21,118,11.8,8.5,
CCN(CC)CCNC(=O)c1c(C)[nH]c2c1CCC/C2=C1/C(=O)Nc2ccc(C(=O)OC)cc21,70.3,167,256,
CCN(CC)CCNC(=O)c1c(C)[nH]c2c1CCC/C2=C1/C(=O)Nc2ccc(S(=O)(=O)N(CC)CC)cc21,396,330,398,
CCN(CC)CCNC(=O)c1c(C)[nH]c(/C=C2\C(=O)Nc3ccc(F)cc32)c1C [SUNITINIB],,,,IC50 (HepG2): 5610 nM; IC50 (T-24): 2440 nM; IC50 (HT-29): 1470 nM; IC50 (cells): 4780 nM; IC50 (BXPC-3 [4]): 3630 nM
Cc1[nH]c2c(c1C(=O)N1CCOCC1)CCC/C2=C1/C(=O)Nc2ccc(F)cc21,40.1,1.1,2.1,
CCN(CC)CCNC(=O)c1c(C)[nH]c2c1CCC/C2=C1/C(=O)Nc2ccc(F)cc21 [TAFETINIB],,,,bioavailability [6]: 90%; IC50 [7]: 1.3 nM; IC50 [8]: 1.3 nM; IC50 (HepG2): 7270 nM; IC50 (T-24): 3310 nM; IC50 (HT-29): 1200 nM; IC50 (cells): 6110 nM; IC50 (BXPC-3 [4]): 520 nM
Cc1[nH]c2c(c1C(=O)N1CCC(N3CCCCC3)CC1)CCC/C2=C1/C(=O)Nc2ccc(F)cc21,40.7,8,7.8,
Cc1[nH]c2c(c1C(=O)NCCCN1CCOCC1)CCC/C2=C1/C(=O)Nc2ccc(F)cc21,18,1,5.7,
CCN(CC)CCNC(=O)c1c(C)[nH]c2c1CCC/C2=C1/C(=O)Nc2cccc(F)c21,62.1,15,43.1,
CCN(CC)CCNC(=O)c1c(C)[nH]c2c1CCC/C2=C1/C(=O)Nc2c(F)cccc21,260,112,181,

# Further lines, with some results ahead:
IC50 [2] [nM],IC50 [3] [nM],IC50 [5] [nM],SMILES,further results
21.3,2.7,9.9,CCN(CC)CCCNC(=O)c1c(C)[nH]c2c1CCC/C2=C1/C(=O)Nc2ccc(F)cc21,
41.6,9.7,7.4,Cc1[nH]c2c(c1C(=O)NCCN1CCCC1)CCC/C2=C1/C(=O)Nc2ccc(F)cc21,
15.6,2.3,4.1,CCN(CC)CCNC(=O)c1c(C)[nH]c2c1CCC/C2=C1/C(=O)Nc2ccc(C)cc21,
7.6,3.9,2.3,CCN(CC)CCNC(=O)c1c(C)[nH]c2c1CCC/C2=C1/C(=O)Nc2ccc(Br)cc21,
22.7,3,6.6,Cc1[nH]c2c(c1C(=O)NCCN(C)C)CCC/C2=C1/C(=O)Nc2ccc(F)cc21,
19.4,4.3,5.8,Cc1[nH]c2c(c1C(=O)NCCN1CCCCC1)CCC/C2=C1/C(=O)Nc2ccc(F)cc21,
101,24.6,35.5,CCN(CC)CCNC(=O)c1c(C)[nH]c2c1CCC/C2=C1/C(=O)Nc2ccc(OC)cc21,
64.8,3.8,10.7,Cc1[nH]c2c(c1C(=O)NCCCN1CCCC1)CCC/C2=C1/C(=O)Nc2ccc(F)cc21,
12.1,2.6,2.7,CCN(CC)CCNC(=O)c1c(C)[nH]c2c1CCC/C2=C1/C(=O)Nc2ccc(Cl)cc21,IC50 (HepG2): 3140 nM; IC50 (T-24): 1830 nM; IC50 (HT-29): 6480 nM; IC50 (cells): 2030 nM; IC50 (BXPC-3 [4]): 1950 nM
161,11.4,37.7,Cc1[nH]c2c(c1C(=O)NCCc1ccccn1)CCC/C2=C1/C(=O)Nc2ccc(F)cc21,
19.3,2.5,4.1,CCN(CC)CC(O)CNC(=O)c1c(C)[nH]c2c1CCC/C2=C1/C(=O)Nc2ccc(F)cc21 (configuration not stated),
13.3,25.7,6.9,CCN(CC)CCNC(=O)c1c(C)[nH]c2c1CCC/C2=C1/C(=O)Nc2ccc([N+](=O)[O-])cc21,
13.2,1.6,2,Cc1[nH]c2c(c1C(=O)NCCN1CCOCC1)CCC/C2=C1/C(=O)Nc2ccc(F)cc21,
12.7,1.1,1.4,Cc1[nH]c2c(c1C(=O)NCCO)CCC/C2=C1/C(=O)Nc2ccc(F)cc21,
